US7935532B2, “DWF4 polynucleotides, polypeptides and uses thereof” (Arizona Board of Regents for and on behalf of Arizona State …, priority 1999, dated 2011)

What was measured:
Assay type in all cases: in vivo, Arabidopsis thaliana
[1] = tested on: wild-type and dwf4 seedlings; assay: Auxin response of seedlings on vertically oriented agar plates with 2,4-D
Protocol: (§1) Gibberellic acid (GA) response was assayed on plants grown individually in 5.7-cm pots. Once inflorescences reached 1 to 2 mm in height, they were sprayed weekly with 1 mM GA3 (Sigma). Control plants were sprayed with water. One week after the third spraying, plants were collected, and the length of the main stem was measured between the top of the rosette and the base of the most distal pedicel; 13 to 18 plants of each line were measured per treatment. Auxin response was tested by growing seedlings for 10 days under 16 hr of light on vertically oriented agar plates containing various concentrations of 2,4-D (Gibco, Grand Island, N.Y.). Genetic interaction with the hy2 mutation was tested by growing seedlings under continuous light for 7 days. Brassinolide (BL) response was determined in liquid culture, as described by Clouse et al. (1993) supra, except that three or four seedlings were grown in each well of a 24-well culture plate for 7 days. Measurements were taken for 10 to 20 seedlings for each genotype and condition, under a dissection microscope fitted with an ocular micrometer.
Auxin can also stimulate cell elongation. This effect is especially visible in young seedlings (Klee and Estelle, supra). […] Higher concentrations of auxin were inhibitory for both wild-type and dwf4 seedlings, and lower concentrations had no effect. In view of the inhibition of root growth, it is clear that dwf4 is not auxin resistant; rather, its elongation response is compromised.

dwf4 seedlings = assay: Feeding of BR biosynthetic intermediates to dwf4 seedlings in liquid media (rescue, dose-response); conditions: for rescue of the light-grown dwf4 phenotype: liquid media; for response of dwf4 seedlings in dose-response experiment in the dark: dark-grown, 6-oxoCN 10^−8 to 3×10^−6 M, 6-deoxoCT high concentrations
Protocol: In view of the results described above, we hypothesized that DWF4 mediates one or more of several steroid hydroxylation steps in the BR biosynthetic pathway. To test this, dwf4 was grown on all of the available biosynthetic intermediates in the BR biosynthetic pathways and examined to ascertain which intermediates could rescue the dwarf phenotype. In addition to the intermediates belonging to the early C-6 oxidation and late C-6 oxidation pathways (Choi et al. (1997), supra), 22α-hydroxycampesterol (22-OHCR), 6α-hydroxycastasterone (6-OHCT) (Takatsuto et al. (1997) J. Chem. Res. (synop.) 11:418-419), and […] (S. Takatsuto, T. Watanabe, T. Noguchi, and S. Fujioka, unpublished data) were synthesized and tested.
Germinated seedlings were transferred to media supplemented with one of the intermediates or BL to pinpoint the step catalyzed by DWF4. […] In addition, the rescued seedlings were less green than the dwarfs. These experiments were conducted in liquid media. Feeding experiments performed in the dark yielded similar results.
However, on CT the overall morphology of dwf4 was essentially rescued to wild-type phenotype at 3×10^−7 M and higher, whereas with 6-deoxoCT, rescue occurred with as little as 10^−7 M and may have even been inhibitory at higher concentrations. Of particular interest is the more dramatic response of the epicotyls versus the smaller response of the hypocotyls to CT. This same phenomenon was true for seedlings treated with >10^−7 M 6-deoxoCT.
A higher concentration of CT for dark-grown seedlings, compared with light-grown seedlings, 3×10^−6 M (FIG. 5B), was required to convert the hypocotyl to a length similar to that of the wild type.

6-week-old dwf4 plants = assay: Treatment of soil-grown mature dwf4 plants with BR intermediates and BL (pedicel elongation); conditions: 10^−6 M, compared with CT and TE at 10^−5 M
Protocol: To determine whether the results of the seedling feeding experiments could be applicable to soil-grown mature plants, 6-week-old dwf4 plants were treated with BR intermediates and BL. Concentrations of applied intermediates were adjusted empirically to optimize responses. Consistent with the results obtained from the seedlings experiments, only 22α-hydroxylated compounds can rescue the dwf4 phenotype. The elongation response was only observed in the young tissues of the inflorescence, regardless of whether the BRs were applied locally or sprayed over the entire plant. In contrast to the striking elongation of the peduncles and pedicels, fertility was not restored by BR treatment. The sterility in dwf4 is hypothesized to be mechanical, which means that the filaments are shorter than the carpels such that the pollen is shed onto the ovary walls rather than onto the stigmatic surface. In fact, if dwf4 plants are hand pollinated using […], fertility increases.

[2] = tested on: wild-type and dwf4 seedlings; assay: GA response of seedlings germinated on GA (hypocotyl elongation)
Protocol: The conditions used for plant growth were essentially as described previously (Feldmann (1991) Plant J. 1:71-82; Forsthoefel et al. (1992) Aust. J. Plant Physiol. 19:353-366), except that agar-solidified medium contained 0.5% sucrose. Seedlings up to 2 weeks of age ([…] of age for dark-growth experiments) were grown on 0.9% agar-solidified medium containing 1×Murashige and Skoog 1962 salts (Murashige, T., and Skoog, F. (1962) Physiol. Plant, 15:473-497) and 0.5% sucrose (w/v) and cold treated (4° C.) for 2 days in the dark before transfer to the light (24 hr light; 80 μmol M^−2 sec^−1); older plants were grown in potting soil. The plates were sealed with Parafilm (American National Can Co., Chicago, Ill.) for the entire experiment. For nucleic acid extraction, genetic analysis, and other experiments in which mature plants were required, seeds were sown on Metromix 350 (Grace Sierra, Milpitas, Calif.) presoaked with distilled water. The pots were covered with plastic wrap and cold treated (4° C.) for two days before transfer to a growth chamber (16:8, light [240 μmol m^−2 sec^−1]:dark; 22 and 21° C., respectively, and 75 to 90% humidity). The plastic wrap was removed 5 days after germination, and the pots were subirrigated in distilled water as required. Germination of seeds for dark growth experiments was induced by overnight exposure of the seeds to light immediately after removing the plates from incubation at 4° C. The dwf4-1 and dwf4-2 mutations were in the Arabidopsis thaliana ecotype Wassilewskija (Ws-2) background; the dwf4-3 and dwf4-4 mutations were in the Enkheim (En-2) background.
Of the endogenous (hormonal) signals that might be deficient in dwarf plants, an obvious candidate is GA, because gibberellin-deficient mutants are shorter in stature than are the wild-type plants (Koommeef and Van der Veen, supra). Our results, however, indicate that dwf4 is not defective in the synthesis of gibberellins. […] Similar results were obtained when soil-grown plants were sprayed with 1 mM GA once inflorescences first became visible: dwf4 inflorescence stems elongated by only 28% above the untreated controls, whereas those of the wild type elongated by 45% above the untreated controls. Mutants that owe their reduced stature to decreased levels of endogenous gibberellins can be fully rescued by added hormone (Koornneef and Van der Veen, supra; Talon et al., supra). In addition, dwf4 seeds germinate in the absence of exogenously supplied GA.

DWF4 promoter (D4GL) = assay: DWF4-promoter:GUS (D4GL) activity in seedlings supplied with hormone
Description: Two promoter constructs were used for the DWF4-promoter:GUS(D4G) analysis. For promoter fusions, polymerase chain reaction (PCR) products spanning 1.1 kb DNA upstream of the translation initiation site were amplified using primers D4XLINIT (5′-[…]-3′) (SEQ ID NO:16) and a T7 primer (5′[…]-3′) (SEQ ID NO:17). For template for PCR, a DWF4 genomic clone subcloned into pBluescript SK-vector (Stratagene La Jolla, Calif.) was used as described herein. The PCR products were restricted with SalI and BamHI, and ligated into the same restriction site of a promoterless GUS vectors pBI101; this 1.1 kb promoter:GUS construct as named pD4GL. For the pD4GS construct, pD4GL was digested with HindIII, the small restriction fragment was removed, and the remaining vector with the partial promoter was self-ligated. The constructs were introduced into Agrobacterium strain GV3101 through electroporation.
For histochemical analysis of the D4GL plants, seeds were plated on M&S plates and grown in the dark and light. Seedlings were harvested at the designated dates and stained overnight using a substrate mixture (0.1 M NaPO4, pH 7, 10 mM EDTA, 0.5 mM K3Fe(CN)6, 0.5 mM K4FE(CN)6, 1 mM X-glucuronide, and 0.1% Triton X-100). Seedlings cleared with 90% ethanol were rehydrated before taking pictures using a Stemi SV11 dissecting microscope (Zeiss, N.Y.).
Since DWF4 is proposed to be a key enzyme in the BR biosynthetic pathway, DWF4 transcription could be regulated by an end-product feedback mechanism. To this end, D4GL was expressed in different genetic backgrounds including two BR deficient mutants, dwf7-1 and dwf8-1, and a BR-enriched line, AOD4. GUS activity was increased in dwf7-1 and dwf8-1 but decreased in AOD4 lines. DWF7 is a C-5 desaturase that acts in the sterol specific part of the pathway. D4GL activity in dwf7-1 was found in the same tissues as wild type but, dwf8-1 is defective in a BR biosynthetic step downstream of CPD. […]

[3] = tested on: wild-type and dwf4 plants; assay: GA response of soil-grown plants sprayed with GA (inflorescence stem length)
Protocol: as §1
Of the endogenous (hormonal) signals that might be deficient in dwarf plants, an obvious candidate is GA, because gibberellin-deficient mutants are shorter in stature than are the wild-type plants (Koommeef and Van der Veen, supra). […]

wild-type seedlings = assay: Hypocotyl and root length of wild-type seedlings supplemented with epi-BL; conditions: light-grown wild type, 10^−6 M epi-BL, 12 days
Protocol: To compare the phenotypic effects resulting form the endogenous and exogenous addition of BRs, the length of roots and hypocotyls of 16 seedlings of dwf4, wild-type controls, wild-type plants supplemented with 10^−6 M epi-BL, and two independent AOD4 lines, grown for 12 days in the light or dark was measured. […] These characteristic responses of wild-type plants to epi-BL treatment were similar in two independent AOD4 lines. […] Inhibition of root growth was also obvious in the AOD4 lines. Furthermore the increased hypocotyl length and reduced root length were consistently observed in 15 independent transformants of tobacco (TOD4) harboring a pOD4 construct.

[4] = light-grown seedlings, dose-response

## O=C(O)COc1ccc(Cl)cc1Cl [2,4-D]
[1]; concentrations lower than 10^−8 M
  hypocotyl elongation: no effect
[1]; wild-type and dwf4 seedlings, 10 days, all concentrations assayed
  root growth: inhibition of root growth was evident
[1]; wild-type and dwf4 seedlings, concentrations higher than 10^−8 M
  hypocotyl elongation: inhibitory

## CC(C)[C@H](C)[C@@H](O)[C@H](O)[C@@H](C)[C@H]1CC[C@H]2[C@@H]3C[C@H](O)[C@H]4C[C@H](O)[C@H](O)C[C@]4(C)[C@H]3CC[C@]12C [6-OHCT, 6α-hydroxycastasterone]
dwf4 seedlings; light-grown seedlings
  rescue of the light-grown dwf4 phenotype: rescued

## CC(C)[C@H](C)C[C@H](O)[C@@H](C)[C@H]1CC[C@H]2[C@@H]3CC[C@H]4C[C@@H](O)CC[C@]4(C)[C@H]3CC[C@]12C [6-deoxoCT, 6-deoxocathasterone]
dwf4 seedlings
  response of dwf4 seedlings in dose-response experiment in the dark: caused dramatic elongation but were less effective at rescuing dwf4 hypocotyls to wild-type phenotype
dwf4 seedlings; [4]
  concentration at which dwf4 overall morphology is rescued to wild-type phenotype: ≥ 10^−7 M
  concentrations at which seedlings displayed inhibition in hypocotyl and root elongation and cotyledon and leaf expansion: > 10^−7 M
dwf4 seedlings; light-grown seedlings
  rescue of the light-grown dwf4 phenotype: rescued
6-week-old dwf4 plants
  sensitivity of dwf4 pedicels: more sensitive

## CC(C)[C@H](C)[C@@H](O)[C@H](O)[C@@H](C)[C@H]1CC[C@H]2[C@@H]3CC[C@H]4C[C@@H](O)CC[C@]4(C)[C@H]3CC[C@]12C [6-deoxoTE, 6-deoxoteasterone]
6-week-old dwf4 plants
  sensitivity of dwf4 pedicels: more sensitive

## CC(C)[C@H](C)CC[C@@H](C)[C@H]1CC[C@H]2[C@@H]3CC(=O)[C@H]4C[C@@H](O)CC[C@]4(C)[C@H]3CC[C@]12C [6-oxoCN, 6-oxocampestanol]
dwf4 seedlings
  response of dwf4 seedlings in dose-response experiment in the dark: failed to respond
dwf4 seedlings; light-grown, even at high concentrations (3×10^−6 M)
  response of dwf4 seedlings in dose-response test: failed to respond

## C=C1C[C@]23C[C@@]1(O)CC[C@H]2[C@@]12C=C[C@H](O)[C@@](C)(C(=O)O1)[C@H]2[C@@H]3C(=O)O [GA, Gibberellic acid]
[2]; dwf4 seedlings germinated on 10^−5 M GA
  hypocotyl elongation response to GA: responded minimally, if at all
[2]; dwf4 seedlings, 10^−4 M compared with 10^−5 M GA
  hypocotyl elongation response to GA: essentially saturated for elongation
[2]; wild-type seedlings at 10^−4 M GA
  hypocotyl elongation response to GA: elongated slightly more than at 10^−5 M
[2]; wild-type seedlings germinated on 10^−5 M GA
  hypocotyl elongation response to GA: demonstrated an elongation response
DWF4 promoter (D4GL); 10^−4 M GA3
  GUS staining in shoots and roots of D4GL plants: did not display an increase in GUS staining
  hypocotyl length of D4GL plants: longer than controls
[3]; dwf4, soil-grown plants sprayed with 1 mM GA
  inflorescence stem elongation above the untreated controls: 28%
[3]; wild type, soil-grown plants sprayed with 1 mM GA
  inflorescence stem elongation above the untreated controls: 45%

## CC(C)[C@@H](C)[C@@H](O)[C@H](O)[C@@H](C)[C@H]1CC[C@H]2[C@@H]3COC(=O)[C@H]4C[C@H](O)[C@H](O)C[C@]4(C)[C@H]3CC[C@]12C [epi-BL, 24-epibrassinolide]
DWF4 promoter (D4GL); 10^−6 M epi-BL, tissues normally stained in untreated controls
  GUS activity of D4GL plants: greatly reduced GUS activity
wild-type seedlings
  hypocotyl length: elongated hypocotyls
  root length: shorter than untreated control plants
